Data on 43 compounds can be found in patent US4115385A, “Antibacterial 3-(5-tetrazolyl) penam compounds” (Pfizer Inc., priority 1977, dated 1978).

One may read the MIC as the lowest concentration that inhibits growth of the organism.

Converted amounts (≈) assume the structure as drawn.

One assay relates to Streptococcus pyogenes. The assay can be described thus: In vitro minimum inhibitory concentration (MIC) vs. Strep. pyogenes. The following applies: Examples. It is filed as cell-based. As to the method:
The antibacterial penam compounds of the instant invention show activity against a wide variety of gram-positive and gram-negative bacteria. […] The broth is inoculated with the bacterial culture, and with the test antibiotic, and then it is incubated overnight. On the next day, the test is read visually. The minimum inhibitory concentration (MIC) is the lowest concentration of antibiotic which prevents turbidity, i.e., which prevents growth of the microorganism. In vitro activities of several of the penam compounds of the invention are presented later in this specification.
In Table II, the minimum inhibitory concentrations (MIC's) of compounds of formula I, wherein R^2 is hydrogen, against a strain of Streptococcus pyogenes, are reported; and in Table III, minimum inhibitory concentrations of compounds of formula I, wherein R^2 is hydrogen, against a strain of Staphylococcus aureus, are presented. Because of the tautomeric nature of such tetrazole derivatives, referred to hereinbefore,each of the preparations tested also contains some of the corresponding compound of formula II, wherein R^3 is hydrogen.
As for “6-(2-Phenylacetamido)-2,2-dimethyl-3-(1-pivaloyloxymethyl]-tetrazol-5-yl)penam and 6-(2-Phenylacetamido)-2,2-dimethyl-3-(2-[pivaloyloxylmethyl]tetrazol-5-yl)penam”, the “MIC against Strep. pyogenes” value was determined as 0.2 µg/mL.

The assay is the same for the next values; noted with them: Streptococcus pyogenes, read-out: MIC vs. Strep. pyogenes.
Turning to `CC1(C)S[C@@H]2[C@H](NC(=O)[C@H](NC(=O)c3cccnc3)c3ccccc3)C(=O)N2[C@H]1c1nnn[nH]1`, the MIC is below 0.1 µg/mL.

Regarding `CC1(C)S[C@@H]2[C@H](NC(=O)[C@H](NC(=O)CCN)c3ccccc3)C(=O)N2[C@H]1c1nn[nH]n1` [D-2-(3-aminopropionamido)-2-phenylacetyl, 6-(D-2-[3-Aminopropionamido]-2-phenylacetamido)-2,2-dimethyl-3-(5-tetrazolyl)penam], the MIC was below 0.1 µg/mL.

For `CCSCC(=O)N[C@@H](C(=O)N[C@@H]1C(=O)N2[C@@H]1SC(C)(C)[C@@H]2c1nnn[nH]1)c1ccccc1`, the minimal inhibitory concentration (MIC) was below 0.1 µg/mL. The same measure, in the same setting: the value for `CC1(C)S[C@@H]2[C@H](NC(=O)[C@H](NC(=O)CN)c3ccccc3)C(=O)N2[C@H]1c1nn[nH]n1` [D-2-(2-aminoacetamido)-2-phenylacetyl, 6-(D-2-[2-Aminoacetamido]-2-phenylacetamido)-2,2-dimethyl-3-(5-tetrazolyl)penam] was below 0.1 µg/mL; that for `CC1(C)S[C@@H]2[C@H](NC(=O)[C@H](NC(=O)c3ccccc3)c3ccccc3)C(=O)N2[C@H]1c1nnn[nH]1` [D-2-(benzamido)-2-phenylacetyl] was below 0.1 µg/mL. On the same count and under the same terms, to `CC1(C)S[C@@H]2[C@H](NC(=O)[C@H](NC(=O)NC(=O)C34CC5CC(CC(C5)C3)C4)c3ccccc3)C(=O)N2[C@H]1c1nn[nH]n1` belongs below 0.1 µg/mL; to `CCCC(=O)NC(=O)N[C@@H](C(=O)N[C@@H]1C(=O)N2[C@@H]1SC(C)(C)[C@@H]2c1nn[nH]n1)c1ccccc1` [2-(3-butyrylureido)-2-phenylacetyl], below 0.1 µg/mL; to `CCCC(=O)NCC(=O)N[C@@H](C(=O)N[C@@H]1C(=O)N2[C@@H]1SC(C)(C)[C@@H]2c1nnn[nH]1)c1ccccc1`, below 0.1 µg/mL. With `CC1(C)S[C@@H]2[C@H](NC(=O)C(C(=O)O)c3ccsc3)C(=O)N2[C@H]1c1nnn[nH]1` (some centres unmarked) [2-carboxy-2-(3-thienyl)acetyl, 6-(2-Carboxy-2-[3-thienyl]acetamido)-2,2-dimethyl-3-(5-tetrazolyl)penam], the MIC was 0.1 µg/mL (≈ 0.245 µM).

In the case of `COc1ccc(CC(=O)N[C@@H](C(=O)N[C@@H]2C(=O)N3[C@@H]2SC(C)(C)[C@@H]3c2nnn[nH]2)c2ccccc2)cc1`, the MIC came out at 0.1 µg/mL (≈ 0.192 µM). On the same count and under the same terms, to `CC1(C)S[C@@H]2[C@H](NC(=O)CSc3ccncc3)C(=O)N2[C@H]1c1nnn[nH]1` [2-(4-pyridylthio)acetyl, 6-(2-[4-Pyridylthio]acetamido)-2,2-dimethyl-3-(5-tetrazolyl)penam] belongs below 0.1 µg/mL; to `CC1(C)S[C@@H]2[C@H](NC(=O)[C@H](NC(=O)CNC(=N)c3cccc(C(N)=O)c3)c3ccccc3)C(=O)N2[C@H]1c1nnn[nH]1`, below 0.1 µg/mL. Still for that read-out and setting: the value for `CC1(C)S[C@@H]2[C@H](NC(=O)[C@H](NC(=O)CNC(=O)c3ccc([N+](=O)[O-])cc3)c3ccccc3)C(=O)N2[C@H]1c1nnn[nH]1` was below 0.1 µg/mL; that for `CC1(C)S[C@@H]2[C@H](NC(=O)[C@H](NC(=O)CCNC(=N)c3cccs3)c3ccccc3)C(=O)N2[C@H]1c1nnn[nH]1` was below 0.1 µg/mL.

Turning to `Cc1cc(C(=O)NC(=O)N[C@@H](C(=O)N[C@@H]2C(=O)N3[C@@H]2SC(C)(C)[C@@H]3c2nn[nH]n2)c2ccccc2)on1`, the MIC was below 0.1 µg/mL. The same measure, in the same setting: to `CC1(C)S[C@@H]2[C@H](NC(=O)C(N)c3ccc(S(N)(=O)=O)cc3)C(=O)N2[C@H]1c1nnn[nH]1` (mixture of isomers) [DL-2-amino-2-(p-sulfamoylphenyl)acetyl] belongs below 0.1 µg/mL; to `CC1(C)S[C@@H]2[C@H](NC(=O)[C@H](NC(=O)Cc3ccccc3)c3ccccc3)C(=O)N2[C@H]1c1nnn[nH]1` [D-2-(2-phenylacetamido)-2-phenylacetyl], below 0.1 µg/mL; to `CC1(C)S[C@@H]2[C@H](NC(=O)[C@H](NC(=O)CNC(=N)c3cc(I)cc(C#N)c3)c3ccccc3)C(=O)N2[C@H]1c1nnn[nH]1`, below 0.1 µg/mL. For the compound `CC1(C)S[C@@H]2[C@H](NC(=O)[C@H](NC(=O)CSC3=NC(=O)CN3)c3ccccc3)C(=O)N2[C@H]1c1nn[nH]n1`, the MIC was 0.1 µg/mL (≈ 0.189 µM). As for `CC1(C)S[C@@H]2[C@H](NC(=O)[C@H](NC(=O)Nc3ccc(Cl)cc3)c3ccccc3)C(=O)N2[C@H]1c1nnn[nH]1`, the MIC is below 0.1 µg/mL.

Turning to `CCSCC(=O)N[C@@H]1C(=O)N2[C@@H]1SC(C)(C)[C@@H]2c1nnn[nH]1` [2-(ethylthio)acetyl], the minimum inhibitory concentration (MIC) is below 0.1 µg/mL.

As to `CN(C)C=N[C@@H](C(=O)N[C@@H]1C(=O)N2[C@@H]1SC(C)(C)[C@@H]2c1nnn[nH]1)c1ccc(O)cc1` [6-(D-2-[Dimethylaminomethyleneamino]-2-[p-hydroxyphenyl]-acetamido)-2,2-dimethyl-3-(5-tetrazolyl)-penam], the MIC is below 0.1 µg/mL.

Consider `CC1(C)S[C@@H]2[C@H](NC(=O)C(=O)c3ccccc3)C(=O)N2[C@H]1c1nnn[nH]1` [phenylglyoxyloyl], for which the MIC was below 0.1 µg/mL. Turning to `CC1(C)S[C@@H]2[C@H](NC(=O)[C@H](NC(=O)Cc3ccc([N+](=O)[O-])cc3)c3ccccc3)C(=O)N2[C@H]1c1nn[nH]n1` [6-(D-2-[2-(4-nitrophenyl)acetamido]-2-phenylacetamido)-2,2-dimethyl-3-(5-tetrazolyl)penam], the MIC was below 0.1 µg/mL.

The assay is the same for the next values; noted with them: Streptococcus pyogenes; Table II; two-fold serial dilution, Brain-Heart Infusion broth, overnight; read-out: MIC vs. Strep. pyogenes.
Regarding `CC1(C)S[C@@H]2[C@H](NC(=O)C(c3ccccc3)S(=O)(=O)O)C(=O)N2[C@H]1c1nnn[nH]1` (some centres unmarked) [2-sulfo-2-phenylacetyl, 6-(2-Sulfo-2-phenylacetamido)-2,2-dimethyl-3-(5-tetrazolyl)penam], the MIC was 200 µg/mL (≈ 456 µM). The same measure, in the same setting: the value for `CC1(C)S[C@@H]2[C@H](NC(=O)[C@H](NC(=O)CC#N)c3ccccc3)C(=O)N2[C@H]1c1nnn[nH]1` [D-2-(2-cyanoacetamido)-2-phenylacetyl] was 0.004 µg/mL (≈ 0.00908 µM). Still for that read-out and setting: to `CC1(C)S[C@@H]2[C@H](NC(=O)[C@@H](c3ccccc3)N3C(=O)c4ccccc4C3=O)C(=O)N2[C@H]1c1nnn[nH]1` [D-2-phthalimido-2-phenylacetyl, 6-(D-2-Phthalimido-2-phenylacetamido)-2,2-dimethyl-3-(5-tetrazolyl)penam] belongs 0.004 µg/mL (≈ 0.00794 µM). Still for that read-out and setting: the value for `CC1(C)S[C@@H]2[C@H](NC(=O)C(CN)c3ccccc3)C(=O)N2[C@H]1c1nnn[nH]1` (mixture of isomers) [DL-3-amino-2-phenylpropionyl, 6-(DL-3-amino-2-phenylpropionamido)-2,2-dimethyl-3-(5-tetrazolyl)penam] was 12.5 µg/mL; that for `CC1(C)S[C@@H]2[C@H](NC(=O)[C@H](NC(=O)CNC(=N)c3cccc(C#N)c3)c3ccccc3)C(=O)N2[C@H]1c1nnn[nH]1` was 6.25 µg/mL (≈ 11.2 µM). In the case of `CC1(C)S[C@@H]2[C@H](NC(=O)[C@H](NC(=O)CNC(=N)Cc3ccc(Cl)cc3)c3ccccc3)C(=O)N2[C@H]1c1nnn[nH]1`, the MIC worked out at 0.2 µg/mL (≈ 0.344 µM). The same measure, in the same setting: the value for `CC1(C)S[C@@H]2[C@H](NC(=O)[C@H](NC(=O)C3OC3C(=O)O)c3ccccc3)C(=O)N2[C@H]1c1nnn[nH]1` (stereo partly drawn) [6-(D-2-[4-Carboxy-2,3-propionamido]-2-phenylacetamido)-2,2-dimethyl-3-(5-tetrazol-5-yl)penam] was 0.2 µg/mL (≈ 0.41 µM); that for `CC1(C)S[C@@H]2[C@H](NC(=O)[C@H](NC(=O)CCNC(=N)c3ccc(Cl)c(Cl)c3)c3ccccc3)C(=O)N2[C@H]1c1nnn[nH]1` was 0.78 µg/mL (≈ 1.27 µM); that for `CC1(C)S[C@@H]2[C@H](NC(=O)[C@H](NC(=O)CCNC(=N)c3ccccc3)c3ccccc3)C(=O)N2[C@H]1c1nnn[nH]1` was 3.12 µg/mL (≈ 5.7 µM). The same measure, in the same setting: to `CNC(=O)N[C@@H](C(=O)N[C@@H]1C(=O)N2[C@@H]1SC(C)(C)[C@@H]2c1nnn[nH]1)c1ccccc1` [D-2-(3-methylureido)-2-phenylacetyl] belongs 50 µg/mL (≈ 116 µM). Regarding `CC1(C)S[C@@H]2[C@H](NC(=O)[C@H](NC(=O)CNC(=O)NS(C)(=O)=O)c3ccccc3)C(=O)N2[C@H]1c1nnn[nH]1`, the MIC was found to be 0.2 µg/mL (≈ 0.363 µM). On the same count and under the same terms, to `CCCC(=O)N[C@@H](C(=O)N[C@@H]1C(=O)N2[C@@H]1SC(C)(C)[C@@H]2c1nnn[nH]1)c1ccccc1` [D-2-(butyramido)-2-phenylacetyl] belongs 0.39 µg/mL (≈ 0.879 µM); to `CC1(C)S[C@@H]2[C@H](NC(=O)[C@H](NC(=O)CNC(=O)NC(=N)NCc3ccc(Cl)cc3)c3ccccc3)C(=O)N2[C@H]1c1nn[nH]n1`, 0.39 µg/mL (≈ 0.609 µM); to `CC1(C)S[C@@H]2[C@H](NC(=O)[C@H](N)c3ccco3)C(=O)N2[C@H]1c1nnn[nH]1` [D-2-amino-2-(2-furyl)acetyl], 0.39 µg/mL (≈ 1.07 µM). On the same count and under the same terms, to `CC1(C)S[C@@H]2[C@H](NC(=O)[C@H](NC(=O)NC(=O)CCl)c3ccccc3)C(=O)N2[C@H]1c1nn[nH]n1` [2-(3-[chloroacetyl]ureido-2-phenylacetyl] belongs 0.2 µg/mL (≈ 0.406 µM).

As to `CC1(C)S[C@@H]2[C@H](NC(=O)[C@@H](N)Cc3ccc(O)cc3)C(=O)N2[C@H]1c1nn[nH]n1` [L-2-amino-3-(p-hydroxyphenyl)propionyl, 6-(L-2-amino-3-[4-hydroxyphenyl]propionamido)-2,2-dimethyl-3-(5-tetrazoyl)penam], the MIC was determined as 0.2 µg/mL (≈ 0.496 µM). The same measure, in the same setting: to `CC1(C)S[C@@H]2[C@H](NC(=O)[C@H](NC(=O)CNC(=O)OCc3ccccc3)c3ccccc3)C(=O)N2[C@H]1c1nnn[nH]1` belongs 0.39 µg/mL (≈ 0.691 µM).

The assay is the same for the next values; noted with them: Table IV.
For the compound “6-(2-Phenylacetamido)-2,2-dimethyl-3-(1-pivaloyloxymethyl]-tetrazol-5-yl)penam and 6-(2-Phenylacetamido)-2,2-dimethyl-3-(2-[pivaloyloxylmethyl]tetrazol-5-yl)penam”, the “MIC vs. Strep. pyogenes” value stood at 0.2 µg/mL. The same measure, in the same setting: the value for “6-(2-[2-Aminomethylphenyl]acetamido)-2,2-dimethyl-3-(1-[2]-pivaloyloxymethyltetrazol-5-yl)penam” was below 0.1 µg/mL.
